Results reported in patent publication US5880157A, “Derivatives of tetramethylcyclopropane” (Yissum Research Development Company of the Hebrew …, priority 1994, dated 1999).

Columns and labels:
[1] = test system: subcutaneous pentylenetetrazol (Metrazol) seizure threshold; experiment: subcutaneous pentylenetetrazol (Metrazol) seizure threshold (s.c. Met) test, mice; conditions: for ED50: Mus musculus, sc, read-out: scMet ED50; for scMet PI (protective index, TD50/ED50): mice; for effective doses in the s.c. Met test compared with VPA or ETS: mouse model, in words
Excerpt: (§1) All compounds described before were screened for their ability to protect against seizures in two different models of epilepsy: the maximal electroshock seizure (MES) model; and the subcutaneous pentylenetetrazol (Metrazol) seizure threshold (s.c.Met) test. Agents effective in the MES model have been correlated with the ability to prevent the seizure spread, whereas those agents effective in the s.c. Met model have been correlated with the ability to raise the threshold for excitation of neural tissue. The PI value, the protective index, is calculated as described below.
(§2) The MES test is the most commonly used test to assess activity against these types of seizures.

[2] = test system: subcutaneous pentylenetetrazol (Metrazol) seizure threshold; experiment: subcutaneous pentylenetetrazol (Metrazol) seizure threshold (s.c. Met) test, rats; conditions: for ED50: Rattus norvegicus, sc, read-out: scMet ED50; for scMet PI (protective index, TD50/ED50): rats
Excerpt: as §1, §2

[3] = test system: maximal electroshock seizure (MES); experiment: maximal electroshock seizure (MES) test, mice; conditions: for ED50: Mus musculus, read-out: MES ED50; for MES PI (protective index, TD50/ED50) / effective dose in the MES test (ED50) compared with Valproic Acid: mice; for effective dose in the MES test (ED50) compared with Valproic Acid: in words
Excerpt: as §1, §2

[4] = neurotoxicity, positional sense test and gait and stance test, rats (p.o.); type: in vivo, rat
Experimental: (§3) Neurotoxicity of the described compounds was assessed in mice (i.p. administration) by the rotorod ataxia test (See Swinyard et al., Supra, pages 85-100), and also in some cases in rats (p.o. administration) by the positional sense test and gait and stance test (see Swinyard above) .

[5] = test system: maximal electroshock seizure (MES); experiment: maximal electroshock seizure (MES) test, rats; conditions: for ED50: Rattus norvegicus, read-out: MES ED50; for MES PI (protective index, TD50/ED50) / effective dose in the MES test (ED50) compared with Valproic Acid: rats; for effective dose in the MES test (ED50) compared with Valproic Acid: in words
Excerpt: as §1, §2

[6] = neurotoxicity, rotorod ataxia test, mice (i.p.); type: in vivo, mouse
Experimental: as §3

[7] = in words; literature; cited from earlier work

| Structure (SMILES) | ED50 [1] [mg/kg] | scMet PI (protective index, TD50/ED50) [1] | effective doses in the s.c. Met test compared with VPA or ETS [1] | ED50 [2] [mg/kg] | scMet PI (protective index, TD50/ED50) [2] | ED50 [3] [mg/kg] | MES PI (protective index, TD50/ED50) [3] | effective dose in the MES test (ED50) compared with Valproic Acid [3] | TD50 (median neurological toxic dose) [4] [mg/kg] | ED50 [5] [mg/kg] | MES PI (protective index, TD50/ED50) [5] | effective dose in the MES test (ED50) compared with Valproic Acid [5] | TD50 ([6]; mouse, ip, read-out: TD50 (median neurological toxic dose)) [mg/kg] | TD50 ([4]; rat, po, read-out: TD50 (median neurological toxic dose)) [mg/kg] | TD50 (median neurological toxic dose) [6] [mg/kg] | adverse side effects [7] |
| --- | --- | --- | --- | --- | --- | --- | --- | --- | --- | --- | --- | --- | --- | --- | --- | --- |
| CNC(=O)C1C(C)(C)C1(C)C [Compound 1, N-Methyl-2,2,3,3-tetramethylcyclopropanecarboxamide] | 39 | 2.1 | lower than that found for either VPA or ETS | 45 | 3.6 | 98 | 0.8 | lower effective dose in the MES test | 163 | 82 | 2.0 | lower effective dose in the MES test | 83 |  |  |  |
| CC1(C)C(C(=O)NCC(N)=O)C1(C)C [Compound 2, N-[(2,2,3,3-Tetramethylcyclopropyl)carbonyl]-glycinamide] | 115 | 2.3 | lower than that found for either VPA or ETS | > 250 |  | 173 | 1.5 | lower effective dose in the MES test |  | 82 | > 6.1 | lower effective dose in the MES test |  | > 500 | 259 |  |
| CC1(C)C(C(N)=O)C1(C)C [Compound 3, 2,2,3,3-Tetramethylcyclopropanecarboxamide] | 57 | 1.7 | lower than that found for either VPA or ETS | 52 | 7.3 | > 120 |  |  | 381 | > 250 |  |  |  |  | 99 |  |
| CCC1(C)CC(=O)NC1=O (stereo not shown) [ETS, Ethosuximide, reference compound] | 130 |  |  | 54 |  | > 1000 |  |  |  | > 1200 |  |  |  |  | 441 |  |
| CCCC(CCC)C(=O)O [Valproic Acid, reference compound] | 149 |  |  | 180 |  |  |  |  |  | 490 |  |  |  |  |  | considerable adverse side effects including hepatoxicity and teratogenicity |
